Columns and labels:
Format in all cases: in vivo
Musca domestica = assay: Test Example 8: filter paper with sucrose bait against Musca domestica; conditions: 500 ppm test solution, 0.7 ml on filter paper, 10 female imagoes, after 24 hours
Method: Each test solution was prepared by diluting a formulation containing any of the present compounds 1, 3-5, 8, 15-16, 19-20, 23, 27, 29, 37, 40, 44, 48, 60-61, 64, 72, 74, 518, 523 and 528 as obtained in Formulation Example 5, with water so as to give 500 ppm of the concentration of the active ingredient.
(§1) A filter paper having a diameter of 5.5 cm was spread on the bottom of a polyethylene cup having a diameter of 5.5 cm and each test solution (0.7 ml) was added dropwise onto the filter paper. As a bait sucrose (30 mg) was uniformly placed on the filter paper. Into the polyethylene cup, 10 female imagoes of Musca domestica were released and the cup was sealed with a lid. After 24 hours, the number of surviving Musca domestica was examined and the death rate of the pest was calculated.

[1] = system: Haemaphysalis longicornis; assay: Test Example 11: coated screw tube against nymphal ticks Haemaphysalis longicornis; conditions: 2 mg compound coated on inner wall of screw tube, 5 non-blood-sucking nymphal ticks, after 2 days
Method: Each 2 mg of the present compounds 1, 5, 8, 15-16, 19, 23, 25-27, 30, 37, 40, 49, 61, 63, 99 and 516 was put into a screw tube (Maruemu No. 5; 27×55 mm). Acetone (0.2 ml) was added thereto and sealed with a cap. After dissolving the compound in acetone, the screw tube was rotated and inverted to uniformity coat the solution onto the whole inner wall of the tube. After removing the cap, the solution was air-dried for about 2 hours. Then, non-blood-sucking nymphal ticks, Haemaphysalis longicornis (5 ticks/group) were released into the tube, and the tube was sealed with the cap. After 2 days, the number of dead tick was counted, and a death rate was calculated according to the following equation: Death rate (%)=(Number of dead tick/Number of tested tick)×100

Blattalla germanica = assay: Test Example 9: filter paper with sucrose bait against Blattalla germanica; conditions: 500 ppm test solution, 0.7 ml on filter paper, 2 male imagoes, after 6 days
Method: Each test solution was prepared by diluting a formulation containing any of the present compounds 4-5, 19-20, 28-29, 40, 44, 48, 60, 71-74, 89, 523 and 528 as obtained in Formulation Example 5, with water so as to give 500 ppm of the concentration of the active ingredient.
as §1, with “2 male” for “10 female”, “Blattalla germanica” for “Musca domestica”, “6 days,” for “24 hours,”

Row | SMILES | death rate (Musca domestica) | death rate [1] | death rate (Blattalla germanica)
1 | CCSc1cccnc1-c1nc2cc(C(F)(F)F)cnc2n1C [compound 1] | 100% | 100% | –
2 | CCS(=O)(=O)c1cccnc1-c1nc2cc(C(F)(F)F)cnc2n1C [compound 3] | 100% | – | –
3 | CCSc1cc(C(F)(F)F)cnc1-c1nc2cc(C(F)(F)F)cnc2n1C [compound 4] | – | – | 100%
4 | CCS(=O)(=O)c1cc(C(F)(F)F)cnc1-c1nc2cc(C(F)(F)F)cnc2n1C [compound 5] | 100% | 100% | 100%
5 | CCS(=O)(=O)c1cccnc1-c1nc2cc(C(F)(F)C(F)(F)F)cnc2n1C [compound 8] | 100% | 100% | –
6 | CCS(=O)(=O)c1cccnc1-c1nc2cc(SC(F)(F)F)cnc2n1C [compound 15] | 100% | 100% | –
7 | CCS(=O)(=O)c1cccnc1-c1nc2cc(S(=O)(=O)C(F)(F)F)cnc2n1C [compound 16] | 100% | 100% | –
8 | CCS(=O)(=O)c1cc(C(F)(F)F)cnc1-c1nc2cc(C(F)(F)C(F)(F)F)cnc2n1C [compound 19] | 100% | 100% | 100%
9 | CCS(=O)(=O)c1cccnc1-c1nc2cc([S+]([O-])C(F)(F)F)cnc2n1C (stereo not shown) [compound 20] | 100% | – | 100%
10 | CCS(=O)(=O)c1cc(C(F)(F)F)cnc1-c1nc2cc(S(=O)(=O)C(F)(F)F)cnc2n1C [compound 25] | – | 100% | –
11 | CCS(=O)(=O)c1cccnc1-c1nc2cc(C(F)(F)C(F)(F)F)ccc2n1C [compound 27] | 100% | 100% | –
12 | CCSc1cc(C(F)(F)F)cnc1-c1nc2cc(SC(F)(F)F)cnc2n1C [compound 28] | – | – | 100%
13 | CCSc1cccnc1-c1nc2cc(C(F)(F)F)ccc2n1C [compound 30] | – | 100% | –
14 | CCS(=O)(=O)c1cc(C(F)(F)F)cnc1-c1nc2cc(C(F)(F)C(F)(F)F)ccc2n1C [compound 40] | 100% | 100% | 100%
15 | CCS(=O)(=O)c1cc(C(F)(F)F)cnc1-c1nc2cc(SC(F)(F)F)cnc2n1C [compound 44] | 100% | – | 100%
16 | CCS(=O)(=O)c1cc(C(F)(F)F)cnc1-c1nc2cc(C(F)(F)F)c[n+]([O-])c2n1C [compound 48] | 100% | – | 100%
17 | CCSc1cccnc1-c1nc2cc(OC(F)(F)F)ccc2n1C [compound 49] | – | 100% | –
18 | CCS(=O)(=O)c1cc(C(F)(F)F)cnc1-c1nc2cc([S+]([O-])C(F)(F)F)cnc2n1C (stereo not shown) [compound 60] | 100% | – | 100%
19 | CCSc1cccnc1-c1nc2cc(SC(F)(F)F)ccc2n1C [compound 61] | 100% | 100% | –
20 | CCS(=O)(=O)c1cccnc1-c1nc2cc(SC(F)(F)F)ccc2n1C [compound 63] | – | 100% | –
21 | CCS(=O)(=O)c1cccnc1-c1nc2cc(S(=O)(=O)C(F)(F)F)ccc2n1C [compound 64] | 100% | – | –
22 | CCSc1cc(C(F)(F)C(F)(F)F)cnc1-c1nc2cc(C(F)(F)F)cnc2n1C [compound 71] | – | – | 100%
23 | CCS(=O)(=O)c1cc(C(F)(F)C(F)(F)F)cnc1-c1nc2cc(C(F)(F)F)cnc2n1C [compound 72] | 100% | – | –
24 | CCS(=O)(=O)c1cc(C(F)(F)C(F)(F)F)cnc1-c1nc2cc(C(F)(F)C(F)(F)F)cnc2n1C [compound 74] | 100% | – | 100%
25 | CCS(=O)(=O)c1cc(C(F)(F)F)cnc1-c1nc2cc(C(F)(F)F)c(Cl)nc2n1C [compound 89] | – | – | 100%
26 | CCS(=O)(=O)c1cc(C(F)(F)F)cnc1-c1nc2cc(C(F)(F)F)c(N(C)C)nc2n1C [compound 99] | – | 100% | –
27 | CCSc1cccnc1-c1nc2cc(C(F)(F)F)cc(Sc3ccccc3)c2n1C [compound 516] | – | 100% | –
28 | CCS(=O)(=O)c1cccnc1-c1nc2cc(C(F)(F)F)cc(S(=O)(=O)CC(F)(F)F)c2n1C [compound 518] | 100% | – | –
29 | CCS(=O)(=O)c1cc(C(F)(F)F)cnc1-c1nc2cc(C(F)(F)C(F)(F)F)c[n+]([O-])c2n1C [compound 523] | 100% | – | 100%
30 | CCS(=O)(=O)c1cc(C(OC)(OC)OC)cnc1-c1nc2cc(C(F)(F)C(F)(F)F)cnc2n1C [compound 528] | 100% | – | 100%
